Measured values: article PMC10977428 (Journal of Parkinson's Disease, 2024)
Where two headings read alike, the source gives them in different places.

Legend:
[1] = system: models of inherited or sporadic Parkinson’s-like disease; settings: once daily oral administration; cited from earlier work
[2] = system: participants with mild-to-moderate PD; assay: Functional assessments of motor and non-motor features of PD; type: in vivo, human; settings: baseline to Day 7
c-Abl activation = settings: once-daily oral administration; cited from earlier work
Single ascending dose = type: in vivo, human; settings: for dose linearity of single dose PK: Cmax and AUC0 - inf; for AUC0 - ∞/D / Cmax/D / tlag: fed, older healthy adults N = 6, mean (SD)
[3] = system: rodent and non-human primates; settings: daily dosing between 13 and 39 weeks duration; cited from earlier work
[4] = type: in vivo, human; settings: for concentration at 6 days: human, cerebrospinal fluid, oral
[5] = 7-day MAD plasma pharmacokinetics, participants with PD; type: in vivo; settings: human, oral
[6] = system: older healthy adults or participants with PD; assay: Safety and tolerability; type: in vivo, human
[7] = 7-day multiple ascending dose; type: in vivo, human; settings: for accumulation of exposures at steady-state: once daily 7 days; for AUC0 - ∞/D / Cmax/D: HV N = 6, mean (SD)
PD features = settings: double blind clinical studies; cited from earlier work
[8] = SAD 12.5 mg single oral dose, plasma
[9] = SAD 25.0 mg single oral dose, plasma
[10] = SAD 37.5 mg single oral dose, plasma
[11] = SAD 75.0 mg single oral dose, plasma
[12] = SAD 100 mg single oral dose, plasma
[13] = SAD 125 mg single oral dose, plasma
[14] = SAD 175 mg single oral dose, plasma
[15] = SAD 250 mg single oral dose, plasma
[16] = SAD 325 mg single oral dose, plasma
[17] = DAY 1 of 7-day dosing, 12.5 mg once daily, plasma
[18] = DAY 1 of 7-day dosing, 25.0 mg once daily, plasma
[19] = DAY 1 of 7-day dosing, 200 mg once daily, plasma
[20] = DAY 7 of 7-day dosing, 25.0 mg once daily, plasma
[21] = DAY 7 of 7-day dosing, 200.0 mg once daily, plasma

Cc1ccc(NC(=O)c2ccc(CN3CCN(C)CC3)cc2)cc1Nc1nccc(-c2cncc(-c3oncc3C)c2)n1 [Risvodetinib]
effect in models of inherited or sporadic Parkinson’s-like disease [1]: therapeutically effective
increase of mean score for MDS-UPDRS Part III ([2]; 50 mg once daily 7 days): 6.2 (±9.50) points
increase of mean score for MDS-UPDRS Part III ([2]; 100 mg once daily 7 days): 7.4 (±14.1) points
effect in the MPTP acute toxicity model (c-Abl activation): blocked disease initiation and progression
dose linearity of single dose PK (Single ascending dose): approximately linear between 12.5 mg and 175 mg
dose linearity of single dose PK (Single ascending dose; listed as risvodetinib (IkT-148009)): approximately linear between 12.5 mg and 200 mg
AUC0 - ∞/D (Single ascending dose; [8]): 758 (345) h*ng/mL/mg
Cmax/D (Single ascending dose; [8]): 35.8 (26.6) ng/mL/mg
tlag (Single ascending dose; [8]): 1.09 (1.48) h
AUC0 - ∞/D (Single ascending dose; [9]): 936 (314) h*ng/mL/mg
Cmax/D (Single ascending dose; [9]): 37.8 (13.9) ng/mL/mg
tlag (Single ascending dose; [9]): 0.614 (0.367) h
AUC0 - ∞/D (Single ascending dose; [10]): 823 (776) h*ng/mL/mg
Cmax/D (Single ascending dose; [10]): 36.0 (21.2) ng/mL/mg
tlag (Single ascending dose; [10]): 0.642 (0.393) h
AUC0 - ∞/D (Single ascending dose; [11]): 802 (342) h*ng/mL/mg
Cmax/D (Single ascending dose; [11]): 36.6 (13.6) ng/mL/mg
tlag (Single ascending dose; [11]): 0.342 (0.143) h
AUC0 - ∞/D (Single ascending dose; [12]): 1150 (285) h*ng/mL/mg
Cmax/D (Single ascending dose; [12]): 53.2 (12.8) ng/mL/mg
tlag (Single ascending dose; [12]): 0.414 (0.350) h
AUC0 - ∞/D (Single ascending dose; [13]): 879 (370) h*ng/mL/mg
Cmax/D (Single ascending dose; [13]): 42.3 (10.1) ng/mL/mg
tlag (Single ascending dose; [13]): 0.306 (0.284) h
AUC0 - ∞/D (Single ascending dose; [14]): 982 (359) h*ng/mL/mg
Cmax/D (Single ascending dose; [14]): 35.0 (13.7) ng/mL/mg
tlag (Single ascending dose; [14]): 0.0944 (0.146) h
AUC0 - ∞/D (Single ascending dose; [15]): 858 (417) h*ng/mL/mg
Cmax/D (Single ascending dose; [15]): 28.9 (6.55) ng/mL/mg
tlag (Single ascending dose; [15]): 0.547 (0.507) h
AUC0 - ∞/D (Single ascending dose; [16]): 749 (385) h*ng/mL/mg
Cmax/D (Single ascending dose; [16]): 22.5 (9.71) ng/mL/mg
tlag (Single ascending dose; [16]): 0.186 (0.250) h
half-life (Single ascending dose; human, plasma, oral): 24 to 39 h
histopathology in the pancreas [3]: no histopathology in the pancreas was observed
concentration at 6 days ([4]; 25 mg): 4.51 ng/mL
concentration at 6 days ([4]; 50 mg): 3.07 ng/mL
concentration at 6 days ([4]; 100 mg): 8.42 ng/mL
detection in cerebrospinal fluid ([4]; pre-dose on the last dosing day of a 7-day dosing study, older healthy adults and PD participants): detected
AUC(0-inf) ([5]; 50 mg): 24500 ng·h/mL
AUC(0-inf) ([5]; 100 mg): 68700 ng·h/mL
Severity of treatment-related adverse event: Dermatitis ([6]; 50 mg, 7-day, 1x/day, PD patients): Mild
Severity of treatment-related adverse event: Palpitations ([6]; 75 mg, Single Dose, healthy subjects): Mild
Severity of treatment-related adverse event: Constipation ([6]; 100 mg, 7-day, 1x/day, PD patients): Mild
Severity of treatment-related adverse event: Elevated Lipase ([6]; 200 mg, 7-day, 1x/day, healthy subjects): Mild
Severity of treatment-related adverse event: Diarrhea ([6]; 325 mg, Single Dose, healthy subjects): Mild
deaths and serious adverse events ([6]; 94 healthy subjects and 14 participants with PD): no deaths, no serious adverse events
adverse events deemed possibly or probably related to the active drug ([6]; among all 36 recorded adverse events, SAD, MAD and MAD-PD, all mild): 11
QTcF prolongation ([6]; any dose or dose duration): No participants displayed evidence of QTcF prolongation
orthostatic hypotension, heart rate, heart rhythm, blood pressure ([6]; participants with PD): did not exacerbate pre-existing orthostatic hypotension
accumulation of exposures at steady-state ([7]; 100 mg or 200 mg, Day 7 comparable to Day 1): little or no accumulation
AUC0 - ∞/D [7, 17]: 706 (424) h*ng/mL/mg
Cmax/D [7, 17]: 43.0 (23.1) ng/mL/mg
AUC0 - ∞/D [7, 18]: 780 (305) h*ng/mL/mg
Cmax/D [7, 18]: 41.5 (22.3) ng/mL/mg
AUC0 - ∞/D [7, 19]: 759 (263) h*ng/mL/mg
Cmax/D [7, 19]: 32.5 (6.4) ng/mL/mg
AUC0 - ∞/D [7, 20]: 1020 (370) h*ng/mL/mg
Cmax/D [7, 20]: 70.9 (32.3) ng/mL/mg
AUC0 - ∞/D [7, 21]: 486 (116) h*ng/mL/mg
Cmax/D [7, 21]: 29.8 (5.6) ng/mL/mg
time to steady-state ([7]; doses > 50 mg once daily (higher doses)): within one day
accumulation of exposures at steady-state ([7]; doses less than or equal to 50 mg): approximately two-fold
time to steady-state ([7]; doses ≤50 mg once daily): ≤ 5 days
AUC(0-inf) ([7]; human, plasma, oral, 12.5 mg): 8830 ng·h/mL
AUC(0-inf) ([7]; human, plasma, oral, 25 mg): 19500 ng·h/mL
AUC(0-inf) ([7]; human, plasma, oral, 200 mg): 152000 ng·h/mL
half-life ([7]; human, plasma, oral, half-life, overall statement in discussion): ~24 h

Cc1cn(-c2cc(NC(=O)c3ccc(C)c(Nc4nccc(-c5cccnc5)n4)c3)cc(C(F)(F)F)c2)cn1 [nilotinib]
improvement of PD features (PD features): failure
